Reference: BindingDB's records for patent US20250042903 (H. Lee Moffitt Cancer Center and Research Institute, 2025)

Biological target: Cyclin-dependent kinase 12 (Homo sapiens, UniProt Q9NYV4)
Assay: Not found
Source text: Not found

Cyclin-dependent kinase 12, sequence (Q9NYV4 whole entry): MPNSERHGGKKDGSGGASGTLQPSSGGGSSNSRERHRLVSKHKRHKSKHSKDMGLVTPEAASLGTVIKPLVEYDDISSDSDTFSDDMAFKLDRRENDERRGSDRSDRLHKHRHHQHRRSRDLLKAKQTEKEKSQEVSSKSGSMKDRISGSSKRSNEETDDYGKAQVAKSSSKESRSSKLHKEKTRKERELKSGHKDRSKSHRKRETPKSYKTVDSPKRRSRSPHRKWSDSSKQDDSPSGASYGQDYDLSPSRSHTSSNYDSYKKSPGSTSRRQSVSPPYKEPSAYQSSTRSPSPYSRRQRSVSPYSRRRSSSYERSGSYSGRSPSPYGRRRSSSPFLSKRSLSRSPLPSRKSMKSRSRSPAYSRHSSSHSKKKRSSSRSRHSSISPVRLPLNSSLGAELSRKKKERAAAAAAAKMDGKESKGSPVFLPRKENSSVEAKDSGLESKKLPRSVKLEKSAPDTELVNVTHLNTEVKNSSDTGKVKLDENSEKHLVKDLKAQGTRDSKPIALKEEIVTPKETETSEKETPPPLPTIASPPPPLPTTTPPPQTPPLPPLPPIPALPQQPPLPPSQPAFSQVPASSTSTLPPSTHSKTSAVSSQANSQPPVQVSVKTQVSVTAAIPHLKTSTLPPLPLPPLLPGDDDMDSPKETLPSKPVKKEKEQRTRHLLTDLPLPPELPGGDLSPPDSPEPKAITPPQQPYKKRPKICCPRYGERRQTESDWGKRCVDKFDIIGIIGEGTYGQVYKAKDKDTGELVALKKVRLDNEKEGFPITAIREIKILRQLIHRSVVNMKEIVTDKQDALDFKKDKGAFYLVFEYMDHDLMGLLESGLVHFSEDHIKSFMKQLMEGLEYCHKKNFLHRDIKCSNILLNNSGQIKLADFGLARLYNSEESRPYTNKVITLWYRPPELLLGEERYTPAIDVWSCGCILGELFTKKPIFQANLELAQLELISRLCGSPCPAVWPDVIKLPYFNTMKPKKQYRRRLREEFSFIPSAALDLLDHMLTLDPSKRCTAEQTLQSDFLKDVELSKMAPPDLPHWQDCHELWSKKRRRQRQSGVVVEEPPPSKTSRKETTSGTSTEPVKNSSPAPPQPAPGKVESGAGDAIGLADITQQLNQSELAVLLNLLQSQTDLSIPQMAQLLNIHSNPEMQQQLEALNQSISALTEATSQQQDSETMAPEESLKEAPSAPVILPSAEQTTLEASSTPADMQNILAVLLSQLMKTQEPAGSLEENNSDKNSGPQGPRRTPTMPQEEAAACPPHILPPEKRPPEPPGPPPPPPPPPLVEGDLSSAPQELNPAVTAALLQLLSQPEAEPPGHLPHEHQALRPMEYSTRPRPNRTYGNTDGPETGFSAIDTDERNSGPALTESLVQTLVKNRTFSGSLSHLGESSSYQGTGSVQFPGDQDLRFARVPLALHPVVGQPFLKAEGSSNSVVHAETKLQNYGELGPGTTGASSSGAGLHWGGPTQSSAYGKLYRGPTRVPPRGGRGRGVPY

| IC50 | SMILES |
| --- | --- |
| 554 nM | CN1CC(C2C=NN3C(NCc4nc5cc(Cl)c(Cl)cc5[nH]4)=NC(N4CCOCC4)=NC23)C=N1 (configuration not stated) [US20250042903, Compound 1] |
| 262 nM | FC(F)N1CC(C2C=NN3C(NCc4nc5cc(Cl)c(Cl)cc5[nH]4)=NC(N4CCOCC4)=NC23)C=N1 (configuration not stated) [US20250042903, Compound 2] |
